The source of these data is ChEMBL document CHEMBL1141799, “Cyanopeptolin 954, a chlorine-containing chymotrypsin inhibitor of Microcystis aeruginosa NIVA Cya 43” (J Nat Prod, 2005).

A short description of test [1]: Inhibition of bovine chymotrypsin. On the set-up: species or system Bos taurus.
For test [2], the species on record is Bos taurus. Put plainly: Inhibition of bovine trypsin at 17.3 uM.
The species entered for test [3] is Bos taurus. Put plainly: Inhibition of bovine trypsin at 11.4 uM.
Test [4] in a line: Inhibition of chymotrypsin.

Active and inactive are the calls of the source. The calls are words filed in the database; no cut-off is given here.

Regarding `CC(=O)N[C@@H](CCC(N)=O)C(=O)N[C@@H]1C(=O)N[C@@H](CC(C)C)C(=O)N[C@H]2CC[C@@H](O)N(C2=O)[C@@H](Cc2ccccc2)C(=O)N(C)[C@@H](Cc2ccc(O)cc2)C(=O)N[C@@H](C(C)C)C(=O)O[C@@H]1C` [NOSTOPEPTIN BN920], in test [1], the midpoint of inhibition, the IC50, lay at 31.2 nM. For the same molecule, the outcome in test [2] and in test [3] was inactive.
With `CC(=O)N[C@@H](CCC(N)=O)C(=O)N[C@@H]1C(=O)N[C@@H](CC(C)C)C(=O)N[C@H]2CC[C@@H](O)N(C2=O)[C@@H](Cc2ccccc2)C(=O)N(C)[C@@H](Cc2ccc(O)c(Cl)c2)C(=O)N[C@@H](C(C)C)C(=O)O[C@H]1C` [CYANOPEPTOLIN 954], the midpoint of inhibition in test [1], the IC50, lay at 44.5 nM. The outcome in test [2] and in test [3] was inactive.
In the case of `CC[C@H](C)[C@@H]1NC(=O)[C@H](Cc2ccc(O)cc2)N(C)C(=O)[C@H](Cc2ccccc2)N2C(=O)[C@H](CC[C@H]2O)NC(=O)[C@H](Cc2ccccc2)NC(=O)[C@@H](NC(=O)[C@@H](O)COP(=O)(O)O)[C@@H](C)OC1=O` [MICROPEPTIN T 20], the IC50 (in general, the midpoint of a concentration-inhibition curve) in test [4] is 2.5 nM.
